How the values were obtained:
[1] = system: wild-type N2 BRISTOL line; conditions: Caenorhabditis elegans, in vivo, 4 days
Protocol: A series of NGM dishes containing clofilium tosylate at concentrations of 1 μM, 5 μM, 10 μM, 50 μM, 100 μM or 200 μM were prepared (three dishes for each concentration). Between 30 and 40 synchronised L1 larvae of the wild-type N2 BRISTOL line or mutated VC1224 line (polg-1(ok1458Δ/+)/mT1 II; +/mT1 [dpy-10(el28)] II), these being nematodes carrying a heterozygous deletion of 2149 bp in the sequence encoding the polg-1 gene, were deposited on each of these dishes.

[2] = system: homozygous TB2143 nematodes (polg-1(Δ/Δ)); experiment: Number of laid and hatched eggs of homozygous nematodes; assay type: in vivo, Caenorhabditis elegans; conditions: 50 μM vs DMSO
Protocol: Four homozygous TB2143 larvae (polg-1(ok1548Δ/Δ)) at stage L4 were deposited on each NGM dish containing either DMSO or 50 μM clofilium tosylate (three dishes for each treatment group). They were incubated at 20° C. to adulthood stage. The adults were moved every 9 to 12 hours, over 6 to 7 days, to new dishes containing DMSO or 50 μM clofilium tosylate until there were no eggs in the uterus, and the number of laid eggs was counted. Each laying process was monitored until the following day in order to count the hatching.

[3] = system: fibroblasts from a patient with a mutation on each allele of the POLG gene; experiment: Amount of mtDNA (qPCR) in patient fibroblasts, quiescent conditions; assay type: cell-based, human
Protocol: Skin fibroblasts from the control and from the patient were cultured to 100% confluence in DMEM at 37° C. under 5% CO2. At 100% confluence, the fibroblasts were washed with PBS and the quiescent medium was added (4.5 g/L D-glucose, 110 mg/L sodium pyruvate, 0.1% foetal bovine serum, 1% penicillin/streptomycin from the stock solution containing 10,000 I.U. penicillin and 10,000 μg/mL streptomycin). After four days in quiescent medium, […] or DMSO (0.1%) was added to the culture medium. The treatment was carried out for 18 days, changing the culture medium with or without clofilium tosylate every three days. […] The mtDNA and nuclear DNA were quantified by qPCR (Sarzi, E., Bourdon, A., Chrétien, D., Zarhrate, M., Corcos, J., Slama, A., Cormier-Daire, V., De Lonlay, P., Munnich, A. and Rötig, A. (2007) Mitochondrial DNA Depletion is a Prevalent Cause of Multiple Respiratory Chain Deficiency in Childhood. J Pediatr, 105, 531-534).
Skin fibroblasts from the patient were cultured to 100% confluence in DMEM at 37° C. under 5% CO2. […] The mtDNA and nuclear DNA were quantified by qPCR (Sarzi, E., Bourdon, A., Chrétien, D., Zarhrate, M., Corcos, J., Slama, A., Cormier-Daire, V., De Lonlay, P., Munnich, A. and Rötig, A. (2007) Mitochondrial DNA Depletion is a Prevalent Cause of Multiple Respiratory Chain Deficiency in Childhood. J Pediatr, 105, 531-534).

[4] = system: complex I in neuronal cybrids derived from a MELAS patient (m.3243A>G tRNA^Leu mutation); experiment: Ratio of complex I/citrate synthase activities in MELAS neuronal cybrids; assay type: cell-based, human; conditions: 300 nM, 48 hours
Protocol: The mutant MELAS neuronal transmitochondrial line, which is the result of the fusion of the immortalised neuoroblastoma parental line SHSY-5Y with fibroblasts carrying the mutation m.3243A>G, was created in the laboratory of Prof. Procaccio.
Neuronal cybrid lines carrying the MELAS mutation and the parental control line were grown in sterile culture flasks and incubated at 37° C. with 5% CO2 in a medium composed of DMEM with 1.5 g/L glucose, 2 mM L-glutamine and supplemented with 10% foetal bovine serum as well as uridine (5 μg/ml) and pyruvate (10 μg/mL). […]
The MELAS neuronal cybrid line carrying the mutation seemingly in the homoplasmic state (i.e. reaching almost 100% MELAS mutation) and the SHSY-5Y parental control line were used for measurements of enzyme activities. […] These cell pellets were then analysed by spectrophotometry with measurement of the different mitochondrial biochemical activities, particularly the activity of citrate synthase and the activity of complex I of the respiratory chain. […]
The enzymatic activities were measured according to the protocol described in Medjda et al, 2009 (Medja F, Allouche S, Frachon P, Jardel C, Malgat M, Mousson de Camaret B, Slama A, Lunardi J, Mazat J P, Lombès A. Development and implementation of standardized respiratory chain spectrophotometric assays for clinical diagnosis. Mitochondrion. 2009 September; 9(5):331-9).

SMILES: CCCCCCC[N+](CC)(CC)CCCCc1ccc(Cl)cc1.Cc1ccc(S(=O)(=O)[O-])cc1 [clofilium tosylate]
- concentration at which a halt in development at stage L3 or a slowdown in development was observed [1]: 100 µM
- maximum concentration to use [1]: 50 µM
- hatching of embryos [2]: increased
- number of laid eggs [2]: increased
- amount of mtDNA, quiescent conditions ([3]; Example 14, 18-day treatment): increased
- amount of mtDNA, quiescent conditions, dose-response ([3]; Example 25, concentrations of 0.5 μM and 1 μM, 18-day treatment): increased
- activity of complex I (ratio complex I/citrate synthase) [4]: increased

From patent US10639287B2, “Compounds for the treatment of mitochondrial diseases” (UNIVERSITE PARIS-SUD, priority 2014, dated 2020)
